Source: patent US12077503B2, “Substituted cyclic amides and their use as herbicides” (FMC CORPORATION, priority 2015, dated 2024)

Tests used:
Assay type in all cases: in vivo
Kochia (Kochia scoparia) [1] = assay: Test A preemergence; conditions: for Plant response rating, Kochia: 125 g ai/ha, preemergence, 0 to 100 scale (0 no effect, 100 complete control); for Kochia plant response rating (0 to 100 scale, 0 is no effect, 100 is complete control): Preemergence, 500 g ai/ha, visual injury approx. 10 d
Outline: (§1)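 Treatment is preemergence as a directed soil spray after planting, or postemergence at the one- to two-leaf stage, with test chemical in a non-phytotoxic solvent mixture plus surfactant. Plants stay in the greenhouse about 10 d before visual injury scoring on a 0 to 100 scale versus untreated controls.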

[2] = tested on: barnyardgrass (Echinochloa crus-galli); assay: Test A preemergence; conditions: for Plant response rating, Barnyardgrass: 125 g ai/ha, preemergence, 0 to 100 scale (0 no effect, 100 complete control); for Barnyardgrass plant response rating (0 to 100 scale, 0 is no effect, 100 is complete control): Preemergence, 500 g ai/ha, visual injury approx. 10 d
Outline: as §1

[3] = tested on: giant foxtail (Setaria faberii); assay: Test A preemergence; conditions: for Plant response rating, Foxtail, Giant: 125 g ai/ha, preemergence, 0 to 100 scale (0 no effect, 100 complete control); for Foxtail, Giant plant response rating (0 to 100 scale, 0 is no effect, 100 is complete control): Preemergence, 500 g ai/ha, visual injury approx. 10 d
Outline: as §1

[4] = tested on: pigweed (Amaranthus retroflexus); assay: Test A preemergence; conditions: for Plant response rating, Pigweed: 125 g ai/ha, preemergence, 0 to 100 scale (0 no effect, 100 complete control); for Pigweed plant response rating (0 to 100 scale, 0 is no effect, 100 is complete control): Preemergence, 500 g ai/ha, visual injury approx. 10 d
[5] = tested on: ragweed (common ragweed, Ambrosia elatior); assay: Test A preemergence; conditions: for Plant response rating, Ragweed: 125 g ai/ha, preemergence, 0 to 100 scale (0 no effect, 100 complete control); for Ragweed plant response rating (0 to 100 scale, 0 is no effect, 100 is complete control): Preemergence, 500 g ai/ha, visual injury approx. 10 d
Outline: as §1

[6] = tested on: ryegrass, Italian (Italian ryegrass, Lolium multiflorum); assay: Test A preemergence; conditions: for Plant response rating, Ryegrass, Italian: 125 g ai/ha, preemergence, 0 to 100 scale (0 no effect, 100 complete control); for Ryegrass, Italian plant response rating (0 to 100 scale, 0 is no effect, 100 is complete control): Preemergence, 500 g ai/ha, visual injury approx. 10 d
Outline: as §1

[7] = tested on: Galium (catchweed bedstraw, Galium aparine); assay: Test A postemergence; conditions: postemergence; for Galium plant response rating: 125 g ai/ha, visual injury rating on 0 to 100 scale (0 no effect, 100 complete control), approx. 10 d; for Plant response rating, Galium: 500 g ai/ha, 0 to 100 scale, 0 no effect, 100 complete control
Outline: as §1

Kochia (Kochia scoparia) [8] = assay: Test A postemergence; conditions: postemergence; for Kochia plant response rating: 125 g ai/ha, visual injury rating on 0 to 100 scale (0 no effect, 100 complete control), approx. 10 d; for Plant response rating, Kochia: 500 g ai/ha, 0 to 100 scale, 0 no effect, 100 complete control
Outline: as §1

[9] = tested on: barnyardgrass (Echinochloa crus-galli); assay: Test A postemergence; conditions: postemergence; for Barnyardgrass plant response rating: 125 g ai/ha, visual injury rating on 0 to 100 scale (0 no effect, 100 complete control), approx. 10 d; for Plant response rating, Barnyardgrass: 500 g ai/ha, 0 to 100 scale, 0 no effect, 100 complete control
Outline: as §1

[10] = tested on: blackgrass (Alopecurus myosuroides); assay: Test A postemergence; conditions: postemergence; for Blackgrass plant response rating: 125 g ai/ha, visual injury rating on 0 to 100 scale (0 no effect, 100 complete control), approx. 10 d; for Plant response rating, Blackgrass: 500 g ai/ha, 0 to 100 scale, 0 no effect, 100 complete control
Outline: as §1

corn (Zea mays) = assay: Test A postemergence; conditions: postemergence; for Corn plant response rating: 125 g ai/ha, visual injury rating on 0 to 100 scale (0 no effect, 100 complete control), approx. 10 d; for Plant response rating, Corn: 500 g ai/ha, 0 to 100 scale, 0 no effect, 100 complete control
Outline: as §1

[11] = tested on: giant foxtail (Setaria faberii); assay: Test A postemergence; conditions: postemergence; for Foxtail, Giant plant response rating: 125 g ai/ha, visual injury rating on 0 to 100 scale (0 no effect, 100 complete control), approx. 10 d; for Plant response rating, Foxtail, Giant: 500 g ai/ha, 0 to 100 scale, 0 no effect, 100 complete control
Outline: as §1

[12] = tested on: pigweed (Amaranthus retroflexus); assay: Test A postemergence; conditions: postemergence; for Pigweed plant response rating: 125 g ai/ha, visual injury rating on 0 to 100 scale (0 no effect, 100 complete control), approx. 10 d; for Plant response rating, Pigweed: 500 g ai/ha, 0 to 100 scale, 0 no effect, 100 complete control
Outline: as §1

[13] = tested on: ragweed (common ragweed, Ambrosia elatior); assay: Test A postemergence; conditions: postemergence; for Ragweed plant response rating: 125 g ai/ha, visual injury rating on 0 to 100 scale (0 no effect, 100 complete control), approx. 10 d; for Plant response rating, Ragweed: 500 g ai/ha, 0 to 100 scale, 0 no effect, 100 complete control
Outline: as §1

[14] = tested on: ryegrass, Italian (Italian ryegrass, Lolium multiflorum); assay: Test A postemergence; conditions: postemergence; for Ryegrass, Italian plant response rating: 125 g ai/ha, visual injury rating on 0 to 100 scale (0 no effect, 100 complete control), approx. 10 d; for Plant response rating, Ryegrass, Italian: 500 g ai/ha, 0 to 100 scale, 0 no effect, 100 complete control
Outline: as §1

[15] = tested on: wheat (Triticum aestivum); assay: Test A postemergence; conditions: postemergence; for Wheat plant response rating: 125 g ai/ha, visual injury rating on 0 to 100 scale (0 no effect, 100 complete control), approx. 10 d; for Plant response rating, Wheat: 500 g ai/ha, 0 to 100 scale, 0 no effect, 100 complete control
Outline: as §1

[16] = tested on: barnyardgrass (Echinochloa crus-galli); assay: Test B flooded paddy test; conditions: Flood, 250 g ai/ha; 0 to 100 scale where 0 is no effect and 100 is complete control; 13 to 15 d
Outline: (§2)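 Percent control, visually estimated after 13–15 d in the greenhouse on a 0–100 basis, compares treated pots with untreated ones; compound was put into paddy water 3 cm above the soil when plants had two leaves.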

[17] = tested on: ducksalad (Heteranthera limosa); assay: Test B flooded paddy test; conditions: Flood, 250 g ai/ha; 0 to 100 scale where 0 is no effect and 100 is complete control; 13 to 15 d
Outline: as §2

rice (Oryra sativa) = assay: Test B flooded paddy test; conditions: Flood, 250 g ai/ha; 0 to 100 scale where 0 is no effect and 100 is complete control; 13 to 15 d
Outline: as §2

[18] = tested on: sedge, umbrella (small-flower umbrella sedge, Cyperus difformis); assay: Test B flooded paddy test; conditions: Flood, 250 g ai/ha; 0 to 100 scale where 0 is no effect and 100 is complete control; 13 to 15 d
Outline: as §2

| Compound | Plant response rating, Kochia (Kochia (Kochia scoparia) [1]) | Kochia plant response rating (0 to 100 scale, 0 is no effect, 100 is complete control) (Kochia (Kochia scoparia) [1]) | Plant response rating, Barnyardgrass [2] | Barnyardgrass plant response rating (0 to 100 scale, 0 is no effect, 100 is complete control) [2] | Plant response rating, Foxtail, Giant [3] | Foxtail, Giant plant response rating (0 to 100 scale, 0 is no effect, 100 is complete control) [3] | Plant response rating, Pigweed [4] | Pigweed plant response rating (0 to 100 scale, 0 is no effect, 100 is complete control) [4] | Plant response rating, Ragweed [5] | Ragweed plant response rating (0 to 100 scale, 0 is no effect, 100 is complete control) [5] | Plant response rating, Ryegrass, Italian [6] | Ryegrass, Italian plant response rating (0 to 100 scale, 0 is no effect, 100 is complete control) [6] | Galium plant response rating [7] | Plant response rating, Galium [7] | Kochia plant response rating (Kochia (Kochia scoparia) [8]) | Plant response rating, Kochia (Kochia (Kochia scoparia) [8]) | Barnyardgrass plant response rating [9] | Plant response rating, Barnyardgrass [9] | Blackgrass plant response rating [10] | Plant response rating, Blackgrass [10] | further results |
| --- | --- | --- | --- | --- | --- | --- | --- | --- | --- | --- | --- | --- | --- | --- | --- | --- | --- | --- | --- | --- | --- |
| CN1CC(c2ccc(F)cc2)C(C(=O)Nc2ccccc2S(C)(=O)=O)C1=O (stereo not drawn) [Compound 439] | 70 | 70 | 90 | 90 | 90 | 100 | 50 | 80 | 0 | 60 | 0 | 50 | 40 | 50 | 30 | 70 | 90 | 90 | 0 | 60 | Corn plant response rating (corn (Zea mays)): 0; Plant response rating, Corn (corn (Zea mays)): 20; Foxtail, Giant plant response rating [11]: 90; Plant response rating, Foxtail, Giant [11]: 90; Pigweed plant response rating [12]: 40; Plant response rating, Pigweed [12]: 50; Ragweed plant response rating [13]: 0; Plant response rating, Ragweed [13]: 20; Ryegrass, Italian plant response rating [14]: 0; Plant response rating, Ryegrass, Italian [14]: 30; Wheat plant response rating [15]: 0; Plant response rating, Wheat [15]: 40; Plant response rating, Barnyardgrass [16]: 40; Plant response rating, Ducksalad [17]: 100; Plant response rating, Rice (rice (Oryra sativa)): 0; Plant response rating, Sedge, Umbrella [18]: 0 |
| CN1CC(c2ccc3c(c2)OC(F)(F)O3)C(C(=O)Nc2ccc(F)cc2F)C1=O (stereo not drawn) [Compound 444] | 60 | 80 | 90 | 90 | 90 | 90 | 80 | 80 | 50 | 80 | 40 | 90 | 60 | 70 | 40 | 80 | 80 | 90 | 70 | 60 | Corn plant response rating (corn (Zea mays)): 60; Plant response rating, Corn (corn (Zea mays)): 70; Foxtail, Giant plant response rating [11]: 80; Plant response rating, Foxtail, Giant [11]: 80; Pigweed plant response rating [12]: 50; Plant response rating, Pigweed [12]: 80; Ragweed plant response rating [13]: 20; Plant response rating, Ragweed [13]: 40; Ryegrass, Italian plant response rating [14]: 50; Plant response rating, Ryegrass, Italian [14]: 80; Wheat plant response rating [15]: 50; Plant response rating, Wheat [15]: 50; Plant response rating, Barnyardgrass [16]: 75; Plant response rating, Ducksalad [17]: 100; Plant response rating, Rice (rice (Oryra sativa)): 0; Plant response rating, Sedge, Umbrella [18]: 0 |
| O=C1NCC(c2cccc(C#Cc3ccccc3)c2)C1C(=O)Nc1cccc(F)c1F (stereo not drawn) [Compound 451] | 0 | 0 | 0 | 0 | 0 | 0 | 0 | 0 | 0 | 0 | 0 | 0 | 0 | 0 | 0 | 0 | 0 | 0 | 0 | 0 | Corn plant response rating (corn (Zea mays)): 0; Plant response rating, Corn (corn (Zea mays)): 0; Foxtail, Giant plant response rating [11]: 0; Plant response rating, Foxtail, Giant [11]: 0; Pigweed plant response rating [12]: 0; Plant response rating, Pigweed [12]: 0; Ragweed plant response rating [13]: 0; Plant response rating, Ragweed [13]: 0; Ryegrass, Italian plant response rating [14]: 0; Plant response rating, Ryegrass, Italian [14]: 0; Wheat plant response rating [15]: 0; Plant response rating, Wheat [15]: 0; Plant response rating, Barnyardgrass [16]: 0; Plant response rating, Ducksalad [17]: 0; Plant response rating, Rice (rice (Oryra sativa)): 0; Plant response rating, Sedge, Umbrella [18]: 0 |
| CS(=O)(=O)c1ccccc1NC(=O)C1C(=O)NCC1c1ccc(Br)cc1 (stereo not drawn) [Compound 452] | 60 | 70 | 60 | 90 | 90 | 90 | 80 | 90 | 20 | 60 | 0 | 30 | 50 | 50 | 50 | 70 | 20 | 70 | 0 | 60 | Corn plant response rating (corn (Zea mays)): 0; Plant response rating, Corn (corn (Zea mays)): 0; Foxtail, Giant plant response rating [11]: 60; Plant response rating, Foxtail, Giant [11]: 80; Pigweed plant response rating [12]: 50; Plant response rating, Pigweed [12]: 70; Ragweed plant response rating [13]: 0; Plant response rating, Ragweed [13]: 30; Ryegrass, Italian plant response rating [14]: 0; Plant response rating, Ryegrass, Italian [14]: 20; Wheat plant response rating [15]: 0; Plant response rating, Wheat [15]: 20; Plant response rating, Barnyardgrass [16]: 0; Plant response rating, Ducksalad [17]: 100; Plant response rating, Rice (rice (Oryra sativa)): 0; Plant response rating, Sedge, Umbrella [18]: 0 |
